Assay results: US20130203718A1 (priority 2010, published 2013)

What was measured:
hMR = target: T1, hMR (Homo sapiens, UniProt P08235); test: APRn selectivity: transactivation in HEK293T cells transiently expressing hMR; type: cell-based; settings: mean±SEM; for MR Antagonist efficacy (%): aldosterone 10^−9 M
T1 construct: expressed in transfected cells; host or cells: HEK 293T
T1 sequence (P08235 1-984): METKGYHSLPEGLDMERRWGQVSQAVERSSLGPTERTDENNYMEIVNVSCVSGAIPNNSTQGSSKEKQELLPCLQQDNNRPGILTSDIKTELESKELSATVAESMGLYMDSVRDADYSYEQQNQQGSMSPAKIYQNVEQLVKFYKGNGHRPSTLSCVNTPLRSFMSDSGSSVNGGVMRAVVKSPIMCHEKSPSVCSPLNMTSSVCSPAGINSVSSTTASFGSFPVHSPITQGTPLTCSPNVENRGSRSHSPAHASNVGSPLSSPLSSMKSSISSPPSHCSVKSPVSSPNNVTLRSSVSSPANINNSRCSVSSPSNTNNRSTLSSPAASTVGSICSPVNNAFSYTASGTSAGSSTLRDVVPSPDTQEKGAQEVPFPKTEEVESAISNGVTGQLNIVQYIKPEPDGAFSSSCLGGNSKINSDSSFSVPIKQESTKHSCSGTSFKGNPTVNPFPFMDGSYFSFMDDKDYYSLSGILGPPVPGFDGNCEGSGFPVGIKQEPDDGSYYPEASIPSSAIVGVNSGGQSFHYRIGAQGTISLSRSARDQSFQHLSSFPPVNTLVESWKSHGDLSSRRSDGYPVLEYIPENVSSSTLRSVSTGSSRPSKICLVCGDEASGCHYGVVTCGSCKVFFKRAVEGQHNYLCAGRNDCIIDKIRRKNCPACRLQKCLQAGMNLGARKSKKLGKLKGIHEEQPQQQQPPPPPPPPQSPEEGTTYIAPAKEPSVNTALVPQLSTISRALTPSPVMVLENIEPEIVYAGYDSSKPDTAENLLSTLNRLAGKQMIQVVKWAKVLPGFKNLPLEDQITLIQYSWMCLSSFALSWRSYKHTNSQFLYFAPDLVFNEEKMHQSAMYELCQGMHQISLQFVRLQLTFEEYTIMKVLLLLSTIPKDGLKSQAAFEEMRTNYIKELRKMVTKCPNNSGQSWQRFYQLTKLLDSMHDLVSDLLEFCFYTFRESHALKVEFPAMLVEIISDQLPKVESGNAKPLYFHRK
Description: Measurement of the APRn Selectivity in HEK 293T.
The HEK-293T cells were cultured and transfected according to the method described above for the PR transactivation assays. The expression vectors pcDNA-hAR, kindly provided by G. A. Coetzee, pchGR (Hellal-Levy, C et al. FEBS Lett 1999, 464, 9), and pchMR (Fagart, J. et al. EMBO J. 1998, 17, 3317) were used for studying the ability of APRn to activate or inactivate the AR, GR and MR, respectively. For each transfection assays, 2 μg of the expression vector was used together with 7 μg of the GRE2-Luc reporter vector. Dihydrotestosterone (DHT), dexamethasone (Dex) and Aldosterone (Aldo) were selected as AR, GR and MR ligands, respectively. They were used at the concentration of 10^−9 M. The APRn agonist and antagonist efficacy for AR, GR and MR were measured as described above for PR. The results are the mean±SEM of three independent experiments.
Transfection assays were performed in HEK 293T cells by using expression vectors for the hAR, hGR and hMR and the GRE2-Luc reporter used for the PR transactivation assays.

[1] = system: PRB-mediated amphiregulin gene transcription; test: Quantitative RT-PCR of endogenous gene transcription in MDA-MB-231 iPRAB cells; type: cell-based, human; settings: APRn 1 μM, 6 h, FIG. 10
Description: MDA-MB-231 iPRAB cells were cultured in 6-well plates in RPMI 1640 medium with L-glutamine without phenol red, enriched with 5% DCC serum containing inducer ligand RSL1 (500 nM) or Dox (1 μg/ml) for PRA or PRB expression during 24 h. […] Total RNA was then extracted using TRIZOL reagent (Invitrogen). One μg of total RNA was treated with DNase I Amplification Grade (Invitrogen) and then reverse transcribed using cDNA RT kit from Applied Biosystems (Courtaboeuf, France) and random primers. Following a ten-fold dilution, the cDNA samples were amplified in duplicate by real-time PCR in ABI 7300 apparatus (Applied Biosystems), using the Power SYBR Green PCR Master Mix (Applied Biosystems) in the presence of 300 nM of forward and reverse specific primers. A dissociation curve was also obtained at the end of the reaction to verify the specificity of the pair of primers. Standard curve for PCR calibration of each gene transcript tested was obtained with the corresponding amplicon subcloned in pGEMT-easy (Promega) and verified by sequencing analysis. The expression level of each gene transcript was normalized to 18S RNA level, and results were expressed as means of relative concentrations of six samples (attomole of specific gene cDNA/femtomole of 18S cDNA±SEM.)
The selected APRn (APR16, APR19, APR43, APR47, APR51, APR54) were verified for their agonist and antagonistic properties on endogenous gene transcription. A ligand activated PRB target gene, amphiregulin was selected for these studies (Georgiakaki, M. Mol Endocrinol 2006, 20, 2122) and quantitative RT-PCR analysis was performed in MDA-MB-231 iPRAB cells as described in Materials and Methods.

SMILES	MR Antagonist efficacy (%) (hMR)	MR Agonist efficacy (%) (hMR)	agonistic effect on amphiregulin gene transcription [1]
CC(=O)[C@H]1CC[C@H]2[C@@H]3CC=C4C[C@@H](F)CC[C@]4(C)[C@H]3CC[C@]12C [APR-16, 3β-Fluoropregn-5-en-20-one]	−2.7 ± 3.3	0.53 ± 0.05	nearly unable to exert agonistic effect
C[C@@H]1CCC2C3CC=C4C[C@@H](F)CC[C@]4(C)C3CC[C@]2(C)[C@H]1F (stereo partly drawn) [APR-19, 3β,17α-Difluoro-17α-methyl-D-Homo-pregn-5-ene]	−1.0 ± 3.5	0.57 ± 0.07	
CC#C[C@]1(O)CCC2C3CC[C@H]4CCCC[C@]4(C)C3CC[C@@]21C (stereo partly drawn) [APR-42, 17α-(1-Propynyl)-5α-androstan-17β-ol]	0.4 ± 2.6	0.57 ± 0.05	
C[C@]12CCC3C(CC=C4C[C@@H](F)CC[C@@H]43)C1CCC2=O (stereo partly drawn) [APR-47, 3β-Fluoro-19-nor-androst-5-en-17-one]	2.2 ± 2.1	0.50 ± 0.14	nearly unable to exert agonistic effect
CC#C[C@]1(O)CCC2C3CC[C@H]4CCCC[C@@H]4C3CC[C@@]21C (stereo partly drawn) [APR-54, 17α-(1-Propynyl)-19-nor-5-androstan-17β-ol]	3.4 ± 6.2	0.53 ± 0.11	nearly unable to exert agonistic effect
